Data published in patent US5861395A, “Compounds useful for inhibition of farnesyl proteins transferase” (Schering Corporation, priority 1997, dated 1999).

Tests used:
[1] = test system: COS Cell; assay: COS Cell IC50 (Cell-Based Assay)
Procedure: FPT IC50 (inhibition of farnesyl protein transferase, in vitro enzyme assay), GGPT IC50 (inhibition of geranylgeranyl protein transferase, in vitro enzyme assay) and COS Cell IC50 (Cell-Based Assay) were determined following the assay procedures described in WO 95/10516, published Apr. 20, 1995. Cell Mat Assay, and anti-tumor activity (in vivo anti-tumor studies) could be determined by the assay procedures described in WO 95/10516. The disclosure of WO 95/10516 is incorporated herein by reference thereto.

[2] = biological target: farnesyl protein transferase; assay: FPT IC50 (inhibition of farnesyl protein transferase, in vitro enzyme assay); assay type: biochemical
Text: In Table 2 "Ex. No." stands for "Example Number". In Table 2, FPT IC50 results are less indicated otherwise.

[3] = test system: Human tumor cells; assay: Soft Agar Assay (anchorage-independent growth); assay type: cell-based; conditions: Table 4, colonies after 10-16 days at 37° C.
Procedure: Soft Agar Assay: Anchorage-independent growth is a characteristic of tumorigenic cell lines. Human tumor cells are suspended in growth medium containing 0.3% agarose and an indicated concentration of a farnesyl transferase inhibitor. The solution is overlayed onto growth medium solidified with 0.6% agarose containing the same concentration of farnesyl transferase inhibitor as the top layer. After the top layer is solidified, plates are incubated for 10-16 days at 37° C. under 5% CO2 to allow colony outgrowth. […] Colonies can be counted and the IC50 's can be determined.

Row | SMILES | IC50 ([1]; Table 4) [nM] | IC50 ([2]; Table 3) [nM] | IC50 ([3]; Homo sapiens) [nM] | also measured
1 | CC(=O)N1CCC(CC(=O)N2CCC([C@H]3c4ncc(Br)cc4CCc4cc(Cl)cc(Br)c43)CC2)CC1 [Compound 36.0-B] | 50 | 2.6 | 180 | IC50 [3]: 170 nM
2 | NC(=O)O[C@H]1CC[C@@H](C(=O)N2CCC(CC(=O)N3CCC([C@H]4c5ncc(Br)cc5CCc5cc(Cl)cc(Br)c54)CC3)CC2)CC1 [Compound 94.0-B] | 25 | 4 | 210 | –
3 | CC(C)(C)OC(=O)Cn1cccc1C(=O)N1CCC(CC(=O)N2CCC([C@H]3c4ncc(Br)cc4CCc4cc(Cl)cc(Br)c43)CC2)CC1 [Compound 61.0-B] | – | 11 | – | –
4 | O=C(CC1CCN(C(=O)c2cccn2Cc2ccccc2)CC1)N1CCC([C@H]2c3ncc(Br)cc3CCc3cc(Cl)cc(Br)c32)CC1 [Compound 41.0-B] | 30 | 1.7 | > 500 | –
5 | CC(=O)O[C@H]1CC[C@@H](C(=O)N2CCC(CC(=O)N3CCC([C@H]4c5ncc(Br)cc5CCc5cc(Cl)cc(Br)c54)CC3)CC2)CC1 [Compound 66.0-B] | 10 | 7.3 | 440 | –
6 | Cc1noc(C)c1C(=O)N1CCC(CC(=O)N2CCC([C@H]3c4ncc(Br)cc4CCc4cc(Cl)cc(Br)c43)CC2)CC1 [Compound 27.0-B] | 10 | 4 | 370 | –
7 | N=C(NC(=O)NC(N)=O)N1CCC(CC(=O)N2CCN(C3c4ccc(Cl)cc4CCc4cc(Br)cnc43)CC2)CC1 (centres unmarked) [Example 14, N-[[(AMINOCARBONYL)AMINO]CARBONYL]-4-[2-[4-(3-BROMO-8-CHLORO-6,11-DIHYDRO-5H-BENZO[5,6]CYCLOHEPTA[1,2-b]-PYRIDIN-11-YL)-1-PIPERAZINYL]2-OXOETHYL]-1-PIPERIDINECARBOXIMIDAMIDE] | – | – | – | IC50 ([2]; Table 2): 78 nM
8 | N#CNC(=N)N1CCC(CC(=O)N2CCN(C3c4ccc(Cl)cc4CCc4cc(Br)cnc43)CC2)CC1 (centres unmarked) [Example 2, 4-[2-[4-(3-BROMO-8-CHLORO-6,11-DIHYDRO-5 H-BENZO[5,6]CYCLOHEPTA[1,2-b]PYRIDIN-11-YL)-1-PIPERAZINYL]-2-OXOETHYL]-N-CYANO-1-PIPERIDINE-CARBOXIMIDAMIDE] | – | – | – | IC50 ([2]; Table 2): 100 nM
9 | O=C(CC1CCN(C(=O)[C@@H]2CSCN2)CC1)N1CCC([C@H]2c3ncc(Br)cc3CCc3cc(Cl)cc(Br)c32)CC1 [Compound 80.0-B] | – | 2.6 | > 500 | –
10 | CS(=O)(=O)n1cccc1C(=O)N1CCC(CC(=O)N2CCC([C@H]3c4ncc(Br)cc4CCc4cc(Cl)cc(Br)c43)CC2)CC1 [Compound 43.0-B] | < 10 | 3.8 | 200 | –
11 | O=C(CC1CCN(C(=O)c2ccoc2)CC1)N1CCC([C@H]2c3ncc(Br)cc3CCc3cc(Cl)cc(Br)c32)CC1 [Compound 84.0-B] | 11 | 8.5 | 100 | –
12 | O=C(CC1CCN(C(=O)c2ccc[n+]([O-])c2)CC1)N1CCC([C@H]2c3ncc(Br)cc3CCc3cc(Cl)cc(Br)c32)CC1 [Compound 46.0-B] | 7 | 1.9 | 165 | –
13 | NC(=NO)N1CCC(CC(=O)N2CCN(C3c4ccc(Cl)cc4CCc4cc(Br)cnc43)CC2)CC1 (centres unmarked) [Example 11, 4-[2-[4-(3-BROMO-8-CHLORO-6,11-DIHYDRO-5 H-BENZO[5,6CYCLOHEPTA[1,2-b]PYRIDIN-11-YL-1-PIPERAZINYL]-2-OXOETHYL]-N-HYDROXY-1-PIPERIDINE-CARBOXIMIDATE] | – | – | – | IC50 ([2]; Table 2): 58 nM
14 | NC(=O)NC(=O)N=C(Oc1ccccc1)N1CCC(CC(=O)N2CCN(C3c4ccc(Cl)cc4CCc4cc(Br)cnc43)CC2)CC1 (centres unmarked) [Example 13, PHENYL N- [[(AMINOCARBONYL)AMINO]CARBONYL]4-[2-[4-(3-BROMO-8-CHLORO-6,11-DIHYDRO-5 H-BENZO[5,6CYCLOHEPTA-[1,2-b]PYRIDIN-11-YL)-1-PIPERAZINYL]-2-OXOETHYL]-1-PIPERIDINECARBOXIMIDATE] | – | – | – | IC50 ([2]; Table 2): 140 nM
15 | NC(=O)Cn1cccc1C(=O)N1CCC(CC(=O)N2CCC([C@H]3c4ncc(Br)cc4CCc4cc(Cl)cc(Br)c43)CC2)CC1 [Compound 42.0-B] | 27 | 3.2 | 310 | –
16 | O=C(O)Cn1cccc1C(=O)N1CCC(CC(=O)N2CCC([C@H]3c4ncc(Br)cc4CCc4cc(Cl)cc(Br)c43)CC2)CC1 [Compound 62.0-B] | 700 | 2.8 | > 500 | –
17 | O=C1C[C@@H](C(=O)N2CCC(CC(=O)N3CCC([C@H]4c5ncc(Br)cc5CCc5cc(Cl)cc(Br)c54)CC3)CC2)NC(=O)N1 [Compound 78.0-B] | 30 | 2.6 | 170 | –

Row | SMILES | IC50 ([1]; Table 4) [nM] | IC50 ([2]; Table 3) [nM] | IC50 ([3]; Homo sapiens) [nM] | also measured
18 | O=C1NC[C@@H](C(=O)N2CCC(CC(=O)N3CCC([C@H]4c5ncc(Br)cc5CCc5cc(Cl)cc(Br)c54)CC3)CC2)N1 [Compound 15.0-B] | 33 | 2 | 280 | IC50 [3]: 370 nM
19 | O=C(CC1CCN(C(=O)c2ccc(O)nc2)CC1)N1CCC([C@H]2c3ncc(Br)cc3CCc3cc(Cl)cc(Br)c32)CC1 [Compound 47.0-B] | 35 | 2.9 | 450 | –
20 | O=C(NC(=O)C(Cl)(Cl)Cl)O[C@H]1CC[C@@H](C(=O)N2CCC(CC(=O)N3CCC([C@H]4c5ncc(Br)cc5CCc5cc(Cl)cc(Br)c54)CC3)CC2)CC1 [Compound 93.0-B] | 30 | 5.7 | 410 | –
21 | N#CN1CCC(CC(=O)N2CCC([C@H]3c4ncc(Br)cc4CCc4cc(Cl)cc(Br)c43)CC2)CC1 [Example 26] | – | – | – | IC50 ([1]; Table 2): 12 nM; IC50 ([2]; Table 2): 2.3 nM
22 | N#CN1CCC(CC(=O)N2CCN(C3c4ccc(Cl)cc4CCc4cc(Br)cnc43)CC2)CC1 (centres unmarked) [Example 4] | – | – | – | IC50 ([2]; Table 2): 54.3 nM
23 | O=C(CC1CCN(C(=O)c2ncccc2O)CC1)N1CCC([C@H]2c3ncc(Br)cc3CCc3cc(Cl)cc(Br)c32)CC1 [Compound 83.0-B] | 12 | 3.2 | 500 | –
24 | O=C(O)c1cncc(C(=O)N2CCC(CC(=O)N3CCC([C@H]4c5ncc(Br)cc5CCc5cc(Cl)cc(Br)c54)CC3)CC2)c1 [Compound 25.0-B] | > 1000 | 0.8 | > 500 | –
25 | O=C(CC1CCN(C(=O)c2ccc(O)nc2)CC1)N1CCC([C@@H]2c3c(Br)cc(Cl)cc3CCc3cc(Br)c[n+]([O-])c32)CC1 [Compound 91.0-B] | 500 | 2.5 | > 500 | –
26 | N#CN=C(Oc1ccccc1)N1CCC(CC(=O)N2CCN(C3c4ccc(Cl)cc4CCc4cc(Br)cnc43)CC2)CC1 (centres unmarked) [Example 1, PHENYL 4-[2-[4-(3-BROMO-8-CHLORO-6,11-DIHYDRO-5H-BENZO[5,6]CYCLOHEPTA[1,2-b]PYRIDIN-11-YL]-1-PIPERAZINYL]-2-OXOETHYL]-N-CYANO-1-PIPERIDINE-CARBOXIMIDATE] | – | – | – | FPT inhibition (column FPT IC50) ([2]; @ 0.3 μM, Table 2): 44%
27 | O=C1N[C@H](C(=O)N2CCC(CC(=O)N3CCC([C@H]4c5ncc(Br)cc5CCc5cc(Cl)cc(Br)c54)CC3)CC2)CO1 [Compound 28.0-B] | 7 | 2.3 | 120 | –
28 | N=C(Oc1ccccc1)N1CCC(CC(=O)N2CCC(C3c4ccc(Cl)c(Br)c4CCc4cc(Br)cnc43)CC2)CC1 (centres unmarked) [Example 27] | – | – | – | IC50 ([2]; Table 2): 39 nM
29 | O=C(CC1CCN(C(=O)[C@H]2CC[C@@H](O)CC2)CC1)N1CCC([C@H]2c3ncc(Br)cc3CCc3cc(Cl)cc(Br)c32)CC1 [Compound 73.0-B] | 24 | 4.5 | 360 | –
30 | O=C(CC1CCN(C(=O)c2cn[nH]c2)CC1)N1CCC([C@H]2c3ncc(Br)cc3CCc3cc(Cl)cc(Br)c32)CC1 [Compound 31.0-B] | 7 | 3 | 150 | –
31 | N=C(NS(N)(=O)=O)N1CCC(CC(=O)N2CCN(C3c4ccc(Cl)cc4CCc4cc(Br)cnc43)CC2)CC1 (centres unmarked) [Example 6, 4-[2-[4-(3-BROMO-8-CHLORO-6,11-DIHYDRO-5H-BENZO[5,6]CYCLOHEPTA[1,2-b]PYRIDIN-11-YL)-1-PIPERAZINYL]2-OXOETHYL]-N-SULFAMOYL-1-PIPERIDINE-CARBOXIMIDAMIDE] | – | – | – | IC50 ([2]; Table 2): 120 nM
32 | N=C(N)N1CCC(CC(=O)N2CCC(C3c4ccc(Cl)c(Br)c4CCc4cc(Br)cnc43)CC2)CC1 (centres unmarked) [Example 28] | – | – | – | inhibition at 1 µM ([1]; @ 1 μM, Table 2): 0%; IC50 ([2]; Table 2): 23 nM
33 | O=C(CC1CCN(C(=O)c2cccnc2O)CC1)N1CCC([C@H]2c3ncc(Br)cc3CCc3cc(Cl)cc(Br)c32)CC1 [Compound 48.0-B] | 47 | 2.1 | > 500 | –
